The source of these data is patent publication US11666559B2, “Spiro-lactam compounds, process and uses thereof” (UNIVERSIDADE DE COIMBRA, priority 2017, dated 2023).

One series has as its system HIV. Description: Anti-HIV activity evaluation (HIV type not specified). The series is classed as cell-based. As for the experimental part:
In an embodiment, TZM-bl cells (AIDS Research and Reference Reagent Program, National Institutes of Health, USA) were cultured in complete growth medium that consists of Dulbecco's minimal essential medium (DMEM) supplemented with 10% fetal bovine serum (FBS), 100 U/ml of penicillin-streptomycin (Gibco/Invitrogen, USA), 1 mM of sodium pyruvate (Gibco/Invitrogen, USA), 2 mM of L-glutamine (Gibco/Invitrogen, USA) and 1 mM of non-essential amino acids (Gibco/Invitrogen, USA).
In an embodiment, the primary isolates 93AOHDC249, 93AOHDC250, 01PTHDECJN and 03PTHCC9, used in this study were previously isolated, titrated and characterized for co-receptor usage. HIV reference strain SG3.1 was obtained by transfection of HEK293T cells with pSG3.1 (HIV-1) plasmid using Fugene 6 reagent (Roche, Switzerland) according to manufacturer's instructions.
In an embodiment, the 50% tissue culture infectious dose (TCID50) of the virus was determined in a single-round viral infectivity assay using a luciferase reporter gene assay in TZM-bl cells and calculated using the statistical method of Reed and Muench^27.
In an embodiment, the antiviral activity of the compounds was determined in a single-round assay with TZM-bl cells as previously described ^26. […] After 48 h of infection, luciferase expression was quantified with the One-Glow luciferase assay substrate reagent (Promega, USA) according to manufacturer's instructions. […] After an incubation of 3 minutes at room temperature to allow complete cell lysis luminescence was measured in Tecan Infinite M200. Background luminescence was measured by using control wells that contained only target cells and GM. […]
In an embodiment, dose-response curves were estimated from the percentage of inhibition of infection (y-axis) against logo of concentration of each compound (x-axis) using the sigmoidal dose-response equation (variable slope) in GraphPad Prism version 5.00 for Windows (GraphPad Software, San Diego Calif. USA, www.graphpad.com). IC50 and IC90 values were determined from this curve. […]

A further series has as its system P. berghei liver stages. In words: In vitro activity against the liver stage of Plasmodium infection (luciferase assay in Huh7 cells). The class given is cell-based, Plasmodium berghei. As to conditions: P. berghei liver stages in Huh7 cells. As for the experimental part:
FIG. 6: Compound activity against P. berghei liver stages. Anti-Plasmodial activity (infection axis, bars) and toxicity to hepatoma cells (cell confluency axis, circles) are shown. Infection loads of Huh7 cells, a human hepatoma cell line, were determined by bioluminescence measurements of cell lysates 48 h after infection with luciferase-expressing P. berghei parasites. Luciferase assay in 96 well-plate; 10 000 Huh7 cells/well+10 000 PbA-LuciGFPcon spz/well.
In an embodiment, the in vitro activity against the liver stage of Plasmodium infection was also carried out: inhibition of liver stage Plasmodium infection by test compounds was determined by measuring the luminescence intensity in Huh-7 cells infected with a firefly luciferase-expressing P. berghei line, as previously described. Briefly, Huh-7 cells, a human hepatoma cell line, were cultured in 1640 RPMI medium supplemented with 10% v/v fetal bovine serum, 1% v/v nonessential amino acids, 1% v/v penicillin/streptomycin, 1% v/v glutamine, and 10 mM 4-(2-hydroxyethyl)-1-piperazineethanesulfonic acid (HEPES), pH 7, and maintained at 37° C. with 5% CO2. For infection assays, Huh-7 cells (1.0×10^4 per well) were seeded in 96-well plates the day before drug treatment and infection. The medium was replaced by medium containing the appropriate concentration of each compound approximately 1 h prior to infection with sporozoites freshly obtained through disruption of salivary glands of infected female Anopheles stephensi mosquitoes. Sporozoite addition was followed by centrifugation at 1700×g for 5 min. Parasite infection load was measured 48 h after infection by a bioluminescence assay (Biotium). The effect of the compounds on the viability of Huh-7 cells was assessed by the AlamarBlue assay (Invitrogen, U.K.) using the manufacturer's protocol.

Another series deals with TZM-bl cells. In words: Cellular viability assay (alamarBlue) in TZM-bl cells. From the text: In an embodiment, the cellular cytotoxicity of 17 spiro-β-lactams was investigated in TZM-bl cells using the AlamarBlue assay as recommended by the manufacturer (Invitrogen, USA). TZM-bl, previously designated JC53-bl (clone 13) is a HeLa cell line. The parental cell line (JC.53) stably expresses large amounts of CD4, CCR5 and CXCR4. The TZM-bl cell line was generated from JC.53 cells by introducing separate integrated copies of the luciferase and […] genes under control of the HIV-1 promoter. The TZM-bl cell line is highly sensitive to infection with diverse isolates of HIV.
In an embodiment, the cellular viability assay was carried out as follows: the potential in vitro cytotoxicity of all BSS compounds was evaluated in TZM-bl cells. TZM-bl cells (10000 cells/well in 96-well plates) were incubated in absence or presence of serial-two-fold dilutions of the compounds in growth medium (GM), with starting concentration of 100 μg/ml and a final concentration of 0.781 μg/ml. After 48 hours, cell viability was examined with alamarBlue reagent (Invitrogen, USA) according to manufacturer's instructions. Briefly, 10 μl of alamarBlue reagent was added to each well. After 4 hours at 37° C., the fluorescence was measured in Tecan Infinite M200 (excitation wavelength 550 nm and emission wavelength 600 nm).
In an embodiment, at least two independent experiments have been performed for each cytotoxicity analysis.
In an embodiment, for each assay there were medium controls (only growth medium), cell controls (cells without test compound) and cytotoxicity controls (a compound that kill cells—SDS).
In general terms: The colour change of resazurin is a common sign of viable cells or microbes.

In general, CC50 refers to the concentration giving 50% cytotoxicity. Read a high CC50 as lower toxicity to the cells. For `COC(=O)C1=C[C@@]2(N=N1)C(=O)N1[C@@H](C(=O)OC(c3ccccc3)c3ccccc3)C(C)(C)S[C@@H]12` [BSS-452], the “anti-HIV activity (in words)” value in the series on HIV is given as “non-active”. In addition, in the series on P. berghei liver stages, the “anti-Plasmodium activity (in words)” value is listed as “did not display anti-Plasmodium activity”. Also, in the series on TZM-bl cells, the CC50 amounted to 105 µM.
The matching figures for `COC(=O)C1=C(C(=O)OC)[C@@]2(N=N1)C(=O)N1[C@@H](C(=O)OC(c3ccccc3)c3ccccc3)C(C)(C)S[C@@H]12` [BSS-1026]: “non-active”, “did not display anti-Plasmodium activity” and 82 µM.
